The source of these data is ChEMBL document CHEMBL5042552, “Site-Specific Isopeptide Bond Formation: A Powerful Tool for the Generation of Potent and Nontoxic Antimicrobial Peptides” (J Med Chem, 2022).

Calls of active or inactive are those of the source. No cut-off for these calls is given here. Starred links: 1 amine or outer side, 2 acyl side, 3 side chain; linkers in the order of their positions; H or OH if unused. Positions of bridges follow the written chain, without caps; N, C: chain ends. Non-standard residues stand in square brackets, D forms with d. Residues, ends and D or L forms follow the SMILES beside them. Groups on a side chain read outwards from the residue. Chains are numbered I, II in the order given. εLys = N[C@@H](CCCCN[*:1])C(=O)[*:2]

For one data set, the system named is HEK293. Nature of the data set: Cytotoxicity against HEK293 cells assessed as reduction in cell viability at 10 to 100 uM incubated for 24 hrs by XTT assay. Format: toxicity, cell-based. The conditions noted are these: human, hek293, 24 h, dose 10-100 µM.
The subject of data set [1] is RAW264.7. Nature of the data set: Cytotoxicity against mouse RAW264.7 cells assessed as reduction in cell viability at 10 to 100 uM incubated for 24 hrs by XTT assay. It is filed as toxicity, cell-based. The conditions noted are these: raw264.7, 24 h, dose 10-100 µM.
The target of a further data set is Trypsin (Homo sapiens, UniProt P07477+P07478+P35030). Nature of the data set: Stability of compound assessed as trypsin (unknown origin) mediated compound degradation at 100 uM measured after 30 mins by RP-HPLC method. Format: ADME, protein assay. As to conditions: 0.5 h.
The nature of data set [2]: Stability in human plasma after 2 hrs by RP-HPLC method. It is filed as ADME, cell-free.
The nature of data set [3]: Hemolytic activity in human erythrocytes at 2.5 to 80 uM incubated for 1 hr by microplate reader assay. Format: toxicity, cell-based. As to conditions: erythrocyte, dose 2.5-80 µM.
The subject of data set [4] is RAW264.7. Nature of the data set: Cytotoxicity against mouse RAW264.7 cells assessed as reduction in cell viability at 100 uM incubated for 24 hrs by XTT assay. As to conditions: raw264.7, 24 h. It is filed as toxicity, cell-based.
The nature of data set [5]: Hemolytic activity in human erythrocytes at 80 uM incubated for 1 hr by microplate reader assay. The conditions noted are these: erythrocyte. It is filed as toxicity, cell-based.
For a further data set, the system named is Escherichia coli. Nature of the data set: Induction of membrane permeabilization in Escherichia coli at MIC concentration by SYTOX-green staining based flow cytometry method. It is filed as functional.
Data set [6] can be described thus: Hemolytic activity in human erythrocytes at 12.5 uM incubated for 1 hr by microplate reader assay. It is filed as toxicity, cell-based. As to conditions: erythrocyte.
The next data set deals with Pseudomonas aeruginosa. Nature of the data set: Induction of membrane permeabilization in Pseudomonas aeruginosa at MIC concentration by SYTOX-green staining based flow cytometry method. Format: functional.
A further data set relates to Staphylococcus aureus. Nature of the data set: Induction of membrane permeabilization in Staphylococcus aureus at MIC concentration by SYTOX-green staining based flow cytometry method. It is filed as functional.
The subject of the next data set is Bacillus subtilis. In words: Induction of membrane permeabilization in Bacillus subtilis at MIC concentration by SYTOX-green staining based flow cytometry method. Format: functional.
Data set [7] relates to Cell membrane. Nature of the data set: Disruption of membrane integrity in Pseudomonas aeruginosa at MIC by […] green dye based confocal microscopy analysis.
Data set [8] deals with Cell membrane. Nature of the data set: Disruption of membrane integrity in Escherichia coli at MIC by […] green dye based confocal microscopy analysis.
In data set [9] the test system is Cell membrane. In words: Disruption of membrane integrity in Staphylococcus aureus at MIC by […] green dye based confocal microscopy analysis.
The subject of data set [10] is Cell membrane. Nature of the data set: Disruption of membrane integrity in Bacillus subtilis at MIC by […] green dye based confocal microscopy analysis.

In the case of `CC(C)C[C@H](NC(=O)[C@H](CC(C)C)NC(=O)[C@@H](N)CCCCNC(=O)[C@H](CC(C)C)NC(=O)[C@H](CC(C)C)NC(=O)[C@H](CCCCN)NC(=O)[C@H](CCCCN)NC(=O)[C@H](CC(C)C)NC(=O)[C@H](CC(C)C)NC(=O)[C@H](CCCCN)NC(=O)[C@H](CCCCN)NC(=O)[C@H](CC(C)C)NC(=O)[C@H](CC(C)C)NC(=O)[C@H](CCCCN)NC(=O)[C@@H](N)CC(C)C)C(N)=O` (H-LKLLKKLLKKLL[εLys]LL-NH2), the Activity result with HEK293 and with RAW264.7 [1] was “Toxic” in each case. Also, the Stability result at Trypsin is “Unstable”; in data set [2], “Stable”.
For `CC(C)C[C@H](NC(=O)[C@H](CC(C)C)NC(=O)[C@H](CCCCN)NC(=O)[C@H](CC(C)C)NC(=O)[C@H](CC(C)C)NC(=O)[C@@H](N)CCCCNC(=O)[C@H](CCCCN)NC(=O)[C@H](CC(C)C)NC(=O)[C@H](CC(C)C)NC(=O)[C@H](CCCCN)NC(=O)[C@H](CCCCN)NC(=O)[C@H](CC(C)C)NC(=O)[C@H](CC(C)C)NC(=O)[C@H](CCCCN)NC(=O)[C@@H](N)CC(C)C)C(N)=O` (H-LKLLKKLLK[εLys]LLKLL-NH2), the Activity result (in [3]; with RAW264.7 [4]; in [5]) was “Non-Toxic” in each case. Further, the Stability result was “Unstable” on Trypsin and “Stable” in data set [2].
For `CC(C)C[C@H](NC(=O)[C@H](CC(C)C)NC(=O)[C@H](CCCCN)NC(=O)[C@H](CC(C)C)NC(=O)[C@H](CC(C)C)NC(=O)[C@H](CCCCN)NC(=O)[C@H](CCCCN)NC(=O)[C@H](CC(C)C)NC(=O)[C@H](CC(C)C)NC(=O)[C@H](CCCCN)NC(=O)[C@@H](N)CCCCNC(=O)[C@H](CC(C)C)NC(=O)[C@H](CC(C)C)NC(=O)[C@H](CCCCN)NC(=O)[C@@H](N)CC(C)C)C(N)=O` (H-K([Leu-Leu-Lys-Leu])KLLKKLLKLL-NH2), the Activity result is “Non-Toxic” in [3], “Toxic” in the data set on HEK293 and “Toxic” in the data set with RAW264.7 [1]. In addition, the Stability entry was “Unstable” on Trypsin and “Stable” in data set [2].
For `CC(C)C[C@H](NC(=O)[C@H](CC(C)C)NC(=O)[C@H](CCCCN)NC(=O)[C@H](CC(C)C)NC(=O)[C@H](CC(C)C)NC(=O)[C@H](CCCCN)NC(=O)[C@H](CCCCN)NC(=O)[C@H](CC(C)C)NC(=O)[C@H](CC(C)C)NC(=O)[C@H](CCCCN)NC(=O)[C@H](CCCCN)NC(=O)[C@H](CC(C)C)NC(=O)[C@H](CC(C)C)NC(=O)[C@H](CCCCN)NC(=O)[C@@H](N)CC(C)C)C(N)=O` (H-LKLLKKLLKKLLKLL-NH2), the Activity with Escherichia coli is 98%; in data set [6] it was “Toxic”; with HEK293, “Toxic”; with Pseudomonas aeruginosa it was 98%; with Staphylococcus aureus, 46%; in the data set with Bacillus subtilis, 41%. Moreover, in the data set on RAW264.7 [1], the Activity result is “Toxic”. Moreover, the result in the data set on Cell membrane [7], in the data set on Cell membrane [8], in the data set with Cell membrane [9] and with Cell membrane [10] was inactive. Besides, the Stability entry is recorded as “Unstable” at Trypsin and “Stable” in data set [2].
As to `CC(C)C[C@H](NC(=O)[C@H](CC(C)C)NC(=O)[C@H](CCCCN)NC(=O)[C@H](CC(C)C)NC(=O)[C@H](CC(C)C)NC(=O)[C@H](CCCCN)NC(=O)[C@@H](N)CCCCNC(=O)[C@H](CC(C)C)NC(=O)[C@H](CC(C)C)NC(=O)[C@H](CCCCN)NC(=O)[C@H](CCCCN)NC(=O)[C@H](CC(C)C)NC(=O)[C@H](CC(C)C)NC(=O)[C@H](CCCCN)NC(=O)[C@@H](N)CC(C)C)C(N)=O` (H-LKLLKKLL[εLys]KLLKLL-NH2), the Activity in the data set on Escherichia coli was 98%; in the data set with RAW264.7 [4] it was “Non-Toxic”; in the data set on Pseudomonas aeruginosa, 98%; with Staphylococcus aureus, 89%; with Bacillus subtilis, 98%; in data set [5], “Non-Toxic”. Moreover, the result in the data set on Cell membrane [7], with Cell membrane [8], with Cell membrane [9] and in the data set with Cell membrane [10] was Active. Besides, the Stability result in data set [2] was “Stable”.
On to `CC(C)C[C@H](NC(=O)[C@H](CC(C)C)NC(=O)[C@H](CCCCN)NC(=O)[C@H](CC(C)C)NC(=O)[C@H](CC(C)C)NC(=O)[C@H](CCCCN)NC(=O)[C@H](CCCCN)NC(=O)[C@H](CC(C)C)NC(=O)[C@H](CC(C)C)NC(=O)[C@H](CCCCN)NC(=O)[C@H](CCCCN)NC(=O)[C@H](CC(C)C)NC(=O)[C@H](CC(C)C)NC(=O)[C@@H](N)CCCCNC(=O)[C@@H](N)CC(C)C)C(N)=O` (H-K(Leu)LLKKLLKKLLKLL-NH2), for which the Activity entry in data set [3] is “Non-Toxic”; with HEK293, “Toxic”; with RAW264.7 [1], “Toxic”. Moreover, the Stability entry is reported as “Unstable” on Trypsin and “Stable” in data set [2].
As to `CC(C)C[C@H](NC(=O)[C@H](CC(C)C)NC(=O)[C@H](CCCCN)NC(=O)[C@H](CC(C)C)NC(=O)[C@H](CC(C)C)NC(=O)[C@H](CCCCN)NC(=O)[C@H](CCCCN)NC(=O)[C@H](CC(C)C)NC(=O)[C@H](CC(C)C)NC(=O)[C@@H](N)CCCCNC(=O)[C@H](CCCCN)NC(=O)[C@H](CC(C)C)NC(=O)[C@H](CC(C)C)NC(=O)[C@H](CCCCN)NC(=O)[C@@H](N)CC(C)C)C(N)=O` (I: H-KLLKKLLKLL-NH2 / II: H-LKLLK; amide I:1-II:C), the Activity entry in data set [3] was “Non-Toxic”; with HEK293 it was “Toxic”; with RAW264.7 [1], “Toxic”. Also, the Stability entry on Trypsin was “Unstable”; in data set [2], “Stable”.
